These results are taken from EP3679037B1, “NEW 5-AMINOTETRAZOLE DERIVATIVES WITH ANTIBACTERIAL AND ANTIFUNGAL ACTIVITY” (Warszawski Uniwersytet Medyczny, priority 2017, dated 2019).

SMILES strings stand for the structures. Converted amounts (≈) assume the structure as drawn. Like-named read-outs stand apart in the source and are kept apart here.

Assay [1] deals with non-cancerous, immortalized human keratinocyte (HaCaT) cell line. The assay can be described thus: Cytotoxicity (inhibition of cell proliferation), HaCaT cell line. In kind it is cell-based. Here is the method: (§1) The obtained compounds were tested for potential cytotoxicity. They are not cytotoxic to the non-cancerous, immortalized human keratinocyte (HaCaT) cell line and the lung cancer cell line (A549).

For assay [2], the system named is lung cancer cell line (A549). The assay can be described thus: Cytotoxicity (inhibition of cell proliferation), A549 cell line. The following applies: Homo sapiens. The class given is cell-based. As to the method:
as §1

For a further assay, the target named is S. aureus DNA Gyrase (Staphylococcus aureus, UniProt P0A0K8+P20831). The assay can be described thus: Inhibition of bacterial DNA gyrase. In kind it is biochemical. As to conditions: dose of inhibitor suppressing 50% activity. An excerpt: (§2) The mechanism of action was verified for the obtained compounds by inhibiting bacterial topoisomerases (Topoisomerase IV and Gyrase).

Assay [3] concerns the target S. aureus Topoisomerase IV (Staphylococcus aureus, UniProt P0C1S7+P0C1U9). Kind of assay: Inhibition of bacterial topoisomerase IV. In kind it is biochemical. As to conditions: dose of inhibitor suppressing 50% activity.
Text: as §2

The mark [4] stands for this setting: concentration at which cell proliferation is inhibited by 50% in relation to the control, read-out: IC50.

S. aureus Topoisomerase IV, sequence (P0C1S7 whole entry): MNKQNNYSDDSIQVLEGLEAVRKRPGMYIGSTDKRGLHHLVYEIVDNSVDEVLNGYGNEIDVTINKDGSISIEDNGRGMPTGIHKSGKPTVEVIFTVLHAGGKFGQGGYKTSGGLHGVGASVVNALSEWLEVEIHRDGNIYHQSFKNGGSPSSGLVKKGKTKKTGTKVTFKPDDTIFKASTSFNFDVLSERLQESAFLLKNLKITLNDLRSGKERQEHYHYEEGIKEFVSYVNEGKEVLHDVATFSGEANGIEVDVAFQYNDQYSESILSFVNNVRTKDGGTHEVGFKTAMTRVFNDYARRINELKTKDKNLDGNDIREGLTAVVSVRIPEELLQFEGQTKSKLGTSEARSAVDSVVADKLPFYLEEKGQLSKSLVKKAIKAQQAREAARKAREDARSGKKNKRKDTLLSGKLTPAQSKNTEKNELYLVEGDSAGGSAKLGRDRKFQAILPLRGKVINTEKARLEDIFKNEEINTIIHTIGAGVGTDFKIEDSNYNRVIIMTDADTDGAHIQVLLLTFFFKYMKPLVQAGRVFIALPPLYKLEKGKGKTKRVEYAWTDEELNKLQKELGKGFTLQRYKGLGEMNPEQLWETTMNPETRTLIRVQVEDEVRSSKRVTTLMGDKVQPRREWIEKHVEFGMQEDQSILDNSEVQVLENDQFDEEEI
S. aureus Topoisomerase IV, sequence (P0C1U9 whole entry): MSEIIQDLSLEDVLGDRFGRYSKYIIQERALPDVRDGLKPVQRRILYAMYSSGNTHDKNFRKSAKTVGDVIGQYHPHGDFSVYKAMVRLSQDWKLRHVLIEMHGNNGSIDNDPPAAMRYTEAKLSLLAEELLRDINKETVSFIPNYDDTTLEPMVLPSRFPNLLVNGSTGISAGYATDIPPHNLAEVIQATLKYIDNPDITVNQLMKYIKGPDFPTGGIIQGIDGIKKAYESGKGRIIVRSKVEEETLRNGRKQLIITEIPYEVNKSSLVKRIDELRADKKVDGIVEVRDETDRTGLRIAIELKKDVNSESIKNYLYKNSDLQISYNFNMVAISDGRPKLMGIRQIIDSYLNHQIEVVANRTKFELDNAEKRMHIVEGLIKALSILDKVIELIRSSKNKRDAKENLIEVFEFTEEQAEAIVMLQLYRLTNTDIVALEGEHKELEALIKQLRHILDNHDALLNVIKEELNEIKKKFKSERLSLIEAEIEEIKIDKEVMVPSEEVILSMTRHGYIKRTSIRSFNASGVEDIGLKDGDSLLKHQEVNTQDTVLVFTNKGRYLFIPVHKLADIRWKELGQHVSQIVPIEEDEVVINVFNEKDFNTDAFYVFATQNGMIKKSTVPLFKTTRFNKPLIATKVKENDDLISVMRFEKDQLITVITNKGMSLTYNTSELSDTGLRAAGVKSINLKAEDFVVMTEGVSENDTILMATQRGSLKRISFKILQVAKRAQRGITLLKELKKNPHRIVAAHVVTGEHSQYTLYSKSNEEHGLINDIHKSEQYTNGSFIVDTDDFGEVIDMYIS
S. aureus DNA Gyrase, sequence (P20831 whole entry): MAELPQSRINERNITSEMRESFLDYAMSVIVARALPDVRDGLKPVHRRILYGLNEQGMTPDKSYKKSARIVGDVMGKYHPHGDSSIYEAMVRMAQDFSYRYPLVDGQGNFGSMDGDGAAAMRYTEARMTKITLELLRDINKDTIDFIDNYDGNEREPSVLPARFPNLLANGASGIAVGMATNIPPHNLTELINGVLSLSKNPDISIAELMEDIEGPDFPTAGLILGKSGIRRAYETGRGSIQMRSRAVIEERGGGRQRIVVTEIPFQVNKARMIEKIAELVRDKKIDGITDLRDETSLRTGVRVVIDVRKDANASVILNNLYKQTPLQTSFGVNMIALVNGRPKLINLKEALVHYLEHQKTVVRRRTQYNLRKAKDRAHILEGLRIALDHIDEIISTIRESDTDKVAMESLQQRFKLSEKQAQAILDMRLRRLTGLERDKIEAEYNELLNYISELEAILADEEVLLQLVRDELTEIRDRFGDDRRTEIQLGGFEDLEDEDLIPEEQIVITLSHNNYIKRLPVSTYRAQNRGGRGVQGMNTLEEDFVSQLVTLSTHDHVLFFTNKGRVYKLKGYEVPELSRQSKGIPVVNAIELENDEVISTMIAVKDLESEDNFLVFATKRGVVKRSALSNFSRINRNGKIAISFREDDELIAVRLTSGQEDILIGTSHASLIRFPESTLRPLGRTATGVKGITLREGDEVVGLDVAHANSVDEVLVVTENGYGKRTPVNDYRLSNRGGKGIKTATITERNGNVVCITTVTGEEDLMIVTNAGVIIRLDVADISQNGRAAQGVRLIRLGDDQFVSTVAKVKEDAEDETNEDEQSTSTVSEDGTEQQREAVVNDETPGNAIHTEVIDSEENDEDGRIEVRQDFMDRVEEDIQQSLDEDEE
S. aureus DNA Gyrase, sequence (P0A0K8 whole entry): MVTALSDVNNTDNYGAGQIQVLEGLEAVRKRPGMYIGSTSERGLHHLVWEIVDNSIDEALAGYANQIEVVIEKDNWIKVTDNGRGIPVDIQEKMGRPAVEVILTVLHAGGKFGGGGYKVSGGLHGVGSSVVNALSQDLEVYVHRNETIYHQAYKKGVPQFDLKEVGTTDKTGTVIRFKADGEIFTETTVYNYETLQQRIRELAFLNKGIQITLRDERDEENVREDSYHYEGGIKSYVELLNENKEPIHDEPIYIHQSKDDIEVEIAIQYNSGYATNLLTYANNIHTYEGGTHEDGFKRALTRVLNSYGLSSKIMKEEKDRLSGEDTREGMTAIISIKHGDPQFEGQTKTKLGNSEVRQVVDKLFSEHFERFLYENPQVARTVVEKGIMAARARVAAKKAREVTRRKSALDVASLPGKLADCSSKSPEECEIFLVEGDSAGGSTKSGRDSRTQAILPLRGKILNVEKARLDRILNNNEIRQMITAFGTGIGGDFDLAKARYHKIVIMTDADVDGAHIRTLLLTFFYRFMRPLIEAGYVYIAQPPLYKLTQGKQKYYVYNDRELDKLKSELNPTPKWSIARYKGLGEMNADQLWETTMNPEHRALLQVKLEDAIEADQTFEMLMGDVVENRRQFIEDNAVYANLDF

With `FC(F)(F)c1ccc(-n2nnnc2Nc2nccs2)cc1` [Compound 3, N-(1-(4-(trifluoromethyl)phenyl)-1H-tetrazol-5-yl)thiazole-2-amine], the IC50 was 80 µM in assay [1] (setting [4]) and 76 µM in assay [2] (setting [4]).
For the compound `Fc1ccc(-n2nnnc2Nn2cnnc2)cc1Cl` [Compound 8, 1-(3-chloro-4-fluorophenyl)-N-(4H-1,2.4-triazol-4-yl)-1H-tetrazole-5-amine], the IC50 in assay [1] amounted to 62 µM; in assay [2], 60 µM.
The corresponding values for `Fc1ccc(-n2nnnc2Nn2cnnc2)cc1` [Compound 9, 1-(4-fluorophenyl)-N-(4H-1,2.4-triazol-4-yl)-1H-tetrazole-5-amine] are 84 µM and 80 µM.
`Fc1ccc(-n2nnnc2Nc2nccs2)cc1Cl` [Compound 2, N-(1-(3-chloro-4-fluorophenyl)-1H-tetrazol-5-yl)thiazol-2-amine]: the IC50 in assay [1] (setting [4]) and in assay [2] (setting [4]) was 60 µM throughout.
In the case of `Cc1ccc(-n2nnnc2NCc2ccco2)cc1Cl` [Compound 10, 1-(3-chloro-4-methylphenyl)-N-(furan-2-ylmethyl)-1H-tetrazole-5-amine], the 50% inhibitory concentration (IC50) is 80 µM in assay [1] (setting [4]), 78 µM in assay [2] (setting [4]) and 41.1 µM in assay [3]. Also, the “IC50 S. aureus DNA Gyrase” value against S. aureus DNA Gyrase is recorded as 22.8 ± 0.4 µg/mL (≈ 78.7 µM).
Turning to `Brc1ccc(-n2nnnc2Nn2cnnc2)cc1` [Compound 5, 1-(4-bromophenyl)-N-(4H-1,2.4-triazol-4-yl)-1H-tetrazole-5-amine], the IC50 came to 65 µM in assay [1] and 62 µM in assay [2].
Take `Clc1ccc(-n2nnnc2NCc2ccco2)cc1Cl` [Compound 11, 1-(3,4-dichlorophenyl)-N-(furan-2-ylmethyl)-1H-tetrazole-5-amine]: the IC50 was 84 µM in assay [1] (setting [4]), 80 µM in assay [2] (setting [4]), 2900 nM against S. aureus DNA Gyrase and 8.38 µM in assay [3].
